SMILES: C#C[C@]1(O)CC[C@H]2[C@@H]3CCC4=CC(=O)CC[C@@H]4[C@H]3CC[C@@]21C [NET, norethindrone]
- NET release rate, effect of quench volume (0.25 to 1.5 L quench liquid per gram, possible minimum at 1 L): varies slightly with a possible minimum
- in vitro release, effect of ethyl acetate content of quench liquid (at extreme ethyl acetate contents): quicker release

— patent US5654008A, “Preparation of biodegradable microparticles containing a biologically active agent” (Alkermes Controlled Therapeutics Inc. II, priority 1996, dated 1997)
